From PubChem BioAssay (NCI)
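Method: 48-hour compound exposure of cells in 96-well plates, five concentrations, linear interpolation of endpoints. The concentration for full growth arrest is given as TGI.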 Where a SMILES comes first, the peptide text is derived from it. The star is where a group is joined. Cbz = O=C(OCc1ccccc1)*

Experiments:
Test in all cases: DTP human tumour cell line panel, 48 h
786-0 renal = system: 786-0 renal
ACHN renal = system: ACHN renal
HOP-92 NSCLC = system: HOP-92 NSCLC
MOLT-4 leukemia = system: MOLT-4 leukemia
NCI-H460 lung = system: NCI-H460 lung
SK-MEL-2 melanoma = system: SK-MEL-2 melanoma
SK-MEL-28 melanoma = system: SK-MEL-28 melanoma
SK-MEL-5 melanoma = system: SK-MEL-5 melanoma
SK-OV-3 ovarian = system: SK-OV-3 ovarian
SN12C renal = system: SN12C renal
SR leukemia = system: SR leukemia
SW-620 colon = system: SW-620 colon
U251 CNS = system: U251 CNS

Row | SMILES | TGI (786-0 renal) [µM] | TGI (ACHN renal) [µM] | TGI (HOP-92 NSCLC) [µM] | TGI (MOLT-4 leukemia) [µM] | TGI (NCI-H460 lung) [µM] | TGI (SK-MEL-2 melanoma) [µM] | TGI (SK-MEL-28 melanoma) [µM] | TGI (SK-MEL-5 melanoma) [µM] | TGI (SK-OV-3 ovarian) [µM] | TGI (SN12C renal) [µM] | TGI (SR leukemia) [µM] | TGI (SW-620 colon) [µM] | TGI (U251 CNS) [µM]
1 | C/C(=N\NC(=S)N1CCCC1)c1nc2ncccc2[nH]1 | 21.7 | 11.4 | 8.5 | 3.7 | 1.68 | 46.8 | 28.2 | 2.93 | 54.2 | > 100 | > 100 | 64.4 | 13.5
2 | C(=Nc1ccc2c(c1)Cc1ccccc1-2)c1ccccn1 | > 100 | > 100 | > 100 | > 100 | > 100 | > 100 | > 100 | > 100 |  | 90.3 | > 100 | > 100 | > 100
3 | Cn1nnnc1SC(F)(F)c1nc2ccccc2o1 | > 100 | > 100 | > 100 | > 100 | > 100 | > 100 | > 100 | > 100 | > 100 | > 100 | > 100 | > 100 | > 100
4 | CCOC(=O)C(Cc1ccc(O)cc1)Nc1nc(=O)c2c(=O)oc(Cl)cc2o1 (configuration not stated) | 22.3 | 24.7 | 25.9 | 10.1 | > 57.2 | 34.3 | 21 | > 49 | 27.7 | 36.8 | 7.53 | 15.2 | 21.9
5 | CN1CCCOC(c2ccc(Cl)cc2)O1 (configuration not stated) | > 100 | > 100 | > 100 | > 100 | > 100 | > 100 | > 100 | > 100 | > 100 | > 100 | > 100 | > 100 | > 100
6 | N#Cc1cc2c(cc1Cl)Sc1nnc(Nc3ccccc3)n1S2(=O)=O | 8.49 | 3.32 | 4.74 | 4.06 | 9.22 | 8.26 | 5.4 | 6.84 | 17.3 | 3.24 | 0.696 | 3.13 | 3.6
7 | COC(=O)[C@@H](NC(=O)N(Cc1ccccc1)C[C@H](CC(C)C)NC(=O)[C@@H](NC(=O)OC(C)(C)C)C(C)C)C(C)C | > 100 | > 100 | > 100 | > 100 | > 100 | > 100 | > 100 | > 100 | > 100 |  | > 100 | > 100 | > 100
8 | O=c1cc(NNc2cccc(Cl)c2)[nH]c(=O)[nH]1 | 31 | > 100 | 35.5 | 60.1 | > 100 | > 100 | > 100 | > 100 | > 100 |  | > 100 | 33 | > 100
9 | CN1CC=C(c2c(N)nc(N)[nH]c2=O)CC1 | > 100 | > 100 | > 100 | > 100 | > 100 | > 100 | > 100 | > 100 | > 100 | > 100 | > 100 | > 100 | > 100
10 | CCOC(=O)CCC(NC(=O)OCc1ccccc1)C(=O)NC(CCC(=O)OCC)C(=O)OCC (configuration not stated) (Cbz-Glu(OEt)-Glu(OEt)-OEt; configuration not given here) | > 100 | > 100 | > 100 | > 100 | > 100 | > 100 | > 100 | > 100 | > 100 | > 100 | > 100 | > 100 | > 100
11 | Cc1ccc(NC(=O)C(=O)C2C(=O)NC(=O)NC2=O)cc1C | > 100 | > 100 | > 100 | > 100 | > 100 | > 100 | > 100 | > 100 | > 100 | > 100 | > 100 | > 100 | > 100
12 | CN(C)CCCNc1ccc2ncn3c4ccc(O)cc4c(=O)c1c23 | 14.7 | 4.04 | 15.3 | 10.1 | 4.56 | 19.6 | 18.1 | 9.57 | 15.1 | 16.2 | 1.55 | 16.4 | 4.6
13 | O=Cc1ccc(-c2ccc(-c3ccc(CO)s3)o2)s1 | > 48.9 | > 100 | 61.5 | > 39 | 3.21 | 97 | > 80.1 | 17.7 | 78.8 | > 88.8 | 2.74 | > 100 | > 42.1
14 | O=C1c2c(Br)sc(Br)c2C(=O)C1(O)O | > 100 | > 100 | 34.7 | 93.5 | > 100 | 86.7 | > 100 | 42.6 | > 100 | > 100 | 57.4 | > 100 | > 100
15 | O=c1[nH]nc(Cc2ccc(Cl)cc2)n1/N=C/c1cccs1 | > 100 | > 100 | 64.2 | > 100 | > 100 | 93.6 | > 100 |  | > 100 | > 100 | > 100 | > 100 | > 100
16 | CCOc1cc(NC(C)=O)ccc1C(=O)NNS(=O)(=O)c1ccc(NC(C)=O)cc1 | > 100 | > 100 | > 100 | > 100 | > 100 | 95.2 | > 100 | 69.3 | > 100 | > 100 | > 100 | > 100 | 
17 | CS(=O)(=O)N1CC(CCl)c2ccc(O)cc21 (configuration not stated) | 11.6 | 12.4 | 9.05 | > 100 | 11.3 | 8.94 | 14.2 | 3.46 |  | 14.5 | 77.4 | 11.5 | 10.3
18 | C/C=C\C(CC(=O)NCC(=O)c1c[nH]c2ccccc12)CC(=O)OC (configuration not stated) | > 100 | > 100 | > 100 | > 100 | > 100 | > 100 | > 100 | > 100 | > 100 |  | > 100 | > 100 | > 100
